# Data: the NIST ThermoML archive (doi:10.1021/acs.jced.6b00290)
# ± gives the expanded uncertainty stated by the source.
# Experiment: refractive index (Na D-line) (dimensionless); wn = mass fraction of the nth substance listed
# Conditions: 333.15 K, 100 kPa, Liquid, Standard Abbe refractometry
SMILES,refractive index (w1 = 0.5241),refractive index (w1 = 0.3525)
[Br-].[Br-].[Mg+2] [magnesium bromide (MgBr2)] + O,1.4594 ± 0.0004,–
O=S(=O)([O-])[O-].[Mg+2] [magnesium sulfate] + O,–,1.3957 ± 0.0004
